Measurements reported in ChEMBL document CHEMBL3739275, “Tryptophan dendrimers that inhibit HIV replication, prevent virus entry and bind to the HIV envelope glycoproteins gp120 and gp41” (Eur J Med Chem, 2015).
The source made the active and inactive calls. The rule behind the calls is not given here.

Assays:
[1] = Cytotoxicity against human CEM cells assessed as cell count after 3 days; type: cell-based; conditions: CEM cells (CCRF-CEM)
[2] = Binding affinity to recombinant HIV1 3B gp-120 expressed in CHO cells by surface plasmon resonance assay; parameters: species or system Human immunodeficiency virus 1; conditions: read-out: Kd(app)
[3] = system: Human immunodeficiency virus 1; assay: Binding affinity to recombinant HIV1 HxB2 gp-41 at 50 uM by surface plasmon resonance assay
[4] = system: Human immunodeficiency virus 1; assay: Antiviral activity against HIV1 NL4.3 infected in human MT4 cells assessed as inhibition of virus-induced cytopathic effect after 5 days by MTS/phenazine ethosulfate method; type: functional, organism-based; conditions: Human immunodeficiency virus 1, NL4.3, MT4, 120 h
[5] = system: Human immunodeficiency virus 1; assay: Antiviral activity against HIV1 3B infected in human CEM cells assessed as inhibition of virus-induced giant cell formation after 4 to 5 days by microscopic analysis; type: functional, organism-based; conditions: CCRF-CEM; for EC50: Human immunodeficiency virus 1, 3B
[6] = Binding affinity to recombinant HIV1 3B gp-120 expressed in CHO cells at 50 uM by surface plasmon resonance assay; conditions: Human immunodeficiency virus 1
[7] = system: Human immunodeficiency virus 1; assay: Antiviral activity against HIV1 3B infected in human MT4 cells assessed as inhibition of early viral infection to host cells by measuring p24 production at 10 uM treated 1 to 25 hrs of post infection by ELISA; type: functional, organism-based
[8] = system: Human immunodeficiency virus 2; assay: Antiviral activity against HIV2 ROD infected in human CEM cells assessed as inhibition of virus-induced giant cell formation after 4 to 5 days by microscopic analysis; type: functional, organism-based; conditions: Human immunodeficiency virus 2, ISOLATE ROD, CCRF-CEM
[9] = Selectivity index, ratio of CC50 for human CEM cells to EC50 for HIV1 3B; type: toxicity, cell-based, CCRF-CEM; conditions: read-out: Ratio CC50/EC50

Activity [3]	EC50 [5] [µM]	EC50 [8] [µM]	SMILES	CC50 at 72 h [1] [µM]	Kd [2] [µM]	EC50 [4] [µM]	Activity [5]	Activity [6]	Activity [7]	selectivity ratio [9]
Active	3.2		O=C(CCC(CCC(=O)N[C@@H](Cc1c[nH]c2ccccc12)C(=O)O)(CCC(=O)N[C@H](Cc1c[nH]c2ccccc12)C(=O)O)NC(=O)CN(CC(=O)NC(CCC(=O)N[C@@H](Cc1c[nH]c2ccccc12)C(=O)O)(CCC(=O)N[C@H](Cc1c[nH]c2ccccc12)C(=O)O)CCC(=O)N[C@H](Cc1c[nH]c2ccccc12)C(=O)O)CC(=O)NC(CCC(=O)N[C@H](Cc1c[nH]c2ccccc12)C(=O)O)(CCC(=O)N[C@H](Cc1c[nH]c2ccccc12)C(=O)O)CCC(=O)N[C@H](Cc1c[nH]c2ccccc12)C(=O)O)N[C@@H](Cc1c[nH]c2ccccc12)C(=O)O	59		2.5	Dose-dependent effect	Active	Active	
	> 250	> 250	CCc1c(CC(=O)NC(CCC(=O)O)(CCC(=O)O)CCC(=O)O)c(CC)c(CC(=O)NC(CCC(=O)O)(CCC(=O)O)CCC(=O)O)c(CC)c1CC(=O)NC(CCC(=O)O)(CCC(=O)O)CCC(=O)O	> 250						
Active	6.2		CCc1c(CC(=O)NC(CCC(=O)N[C@@H](Cc2c[nH]c3ccccc23)C(=O)O)(CCC(=O)N[C@@H](Cc2c[nH]c3ccccc23)C(=O)O)CCC(=O)N[C@H](Cc2c[nH]c3ccccc23)C(=O)O)c(CC)c(CC(=O)NC(CCC(=O)N[C@@H](Cc2c[nH]c3ccccc23)C(=O)O)(CCC(=O)N[C@H](Cc2c[nH]c3ccccc23)C(=O)O)CCC(=O)N[C@H](Cc2c[nH]c3ccccc23)C(=O)O)c(CC)c1CC(=O)NC(CCC(=O)N[C@@H](Cc1c[nH]c2ccccc12)C(=O)O)(CCC(=O)N[C@H](Cc1c[nH]c2ccccc12)C(=O)O)CCC(=O)N[C@H](Cc1c[nH]c2ccccc12)C(=O)O	> 100			Dose-dependent effect	Active		
Active	11.3	≥ 30	O=C(CCC(CCC(=O)N[C@@H](Cc1c[nH]c2ccccc12)C(=O)O)(CCC(=O)N[C@@H](Cc1c[nH]c2ccccc12)C(=O)O)NC(=O)CN(CCN(CC(=O)NC(CCC(=O)N[C@@H](Cc1c[nH]c2ccccc12)C(=O)O)(CCC(=O)N[C@@H](Cc1c[nH]c2ccccc12)C(=O)O)CCC(=O)N[C@H](Cc1c[nH]c2ccccc12)C(=O)O)CC(=O)NC(CCC(=O)N[C@@H](Cc1c[nH]c2ccccc12)C(=O)O)(CCC(=O)N[C@H](Cc1c[nH]c2ccccc12)C(=O)O)CCC(=O)N[C@H](Cc1c[nH]c2ccccc12)C(=O)O)CC(=O)NC(CCC(=O)N[C@@H](Cc1c[nH]c2ccccc12)C(=O)O)(CCC(=O)N[C@H](Cc1c[nH]c2ccccc12)C(=O)O)CCC(=O)N[C@H](Cc1c[nH]c2ccccc12)C(=O)O)N[C@@H](Cc1c[nH]c2ccccc12)C(=O)O	> 30			Dose-dependent effect	Active		
Active	2.6		O=C(CCC(CCC(=O)N[C@@H](Cc1c[nH]c2ccccc12)C(=O)O)(CCC(=O)N[C@H](Cc1c[nH]c2ccccc12)C(=O)O)NC(=O)c1cc(C(=O)NC(CCC(=O)N[C@@H](Cc2c[nH]c3ccccc23)C(=O)O)(CCC(=O)N[C@H](Cc2c[nH]c3ccccc23)C(=O)O)CCC(=O)N[C@H](Cc2c[nH]c3ccccc23)C(=O)O)cc(C(=O)NC(CCC(=O)N[C@@H](Cc2c[nH]c3ccccc23)C(=O)O)(CCC(=O)N[C@H](Cc2c[nH]c3ccccc23)C(=O)O)CCC(=O)N[C@H](Cc2c[nH]c3ccccc23)C(=O)O)c1)N[C@@H](Cc1c[nH]c2ccccc12)C(=O)O	53		1.3	Dose-dependent effect	Active		
Active	9.9	44	O=C(CCC(CCC(=O)N[C@@H](Cc1c[nH]c2ccccc12)C(=O)O)(CCC(=O)N[C@H](Cc1c[nH]c2ccccc12)C(=O)O)NC(=O)CCC(CCC(=O)NC(CCC(=O)N[C@@H](Cc1c[nH]c2ccccc12)C(=O)O)(CCC(=O)N[C@@H](Cc1c[nH]c2ccccc12)C(=O)O)CCC(=O)N[C@H](Cc1c[nH]c2ccccc12)C(=O)O)(CCC(=O)NC(CCC(=O)N[C@@H](Cc1c[nH]c2ccccc12)C(=O)O)(CCC(=O)N[C@H](Cc1c[nH]c2ccccc12)C(=O)O)CCC(=O)N[C@H](Cc1c[nH]c2ccccc12)C(=O)O)[N+](=O)[O-])N[C@@H](Cc1c[nH]c2ccccc12)C(=O)O	> 100			Dose-dependent effect	Active		
	> 250	> 250	O=C(O)CCC(CCC(=O)O)(CCC(=O)O)NC(=O)CN(CCN(CC(=O)NC(CCC(=O)O)(CCC(=O)O)CCC(=O)O)CC(=O)NC(CCC(=O)O)(CCC(=O)O)CCC(=O)O)CC(=O)NC(CCC(=O)O)(CCC(=O)O)CCC(=O)O	> 250						

Continued, molecule first:

SMILES	Activity [3]	EC50 [5] [µM]	EC50 [8] [µM]	CC50 at 72 h [1] [µM]	Kd [2] [µM]	EC50 [4] [µM]	Activity [5]	Activity [6]	Activity [7]	selectivity ratio [9]
C[C@H](Cn1cnc2c(N)ncnc21)OCP(=O)(O)O [TENOFOVIR ANHYDROUS]				> 100						
CCc1c(CNc2nc(N[C@@H](Cc3c[nH]c4ccccc34)C(=O)O)nc(N[C@@H](Cc3c[nH]c4ccccc34)C(=O)O)n2)c(CC)c(CNc2nc(N[C@@H](Cc3c[nH]c4ccccc34)C(=O)O)nc(N[C@@H](Cc3c[nH]c4ccccc34)C(=O)O)n2)c(CC)c1CNc1nc(N[C@@H](Cc2c[nH]c3ccccc23)C(=O)O)nc(N[C@@H](Cc2c[nH]c3ccccc23)C(=O)O)n1				> 250	14					
O=C(CCC(CCC(=O)N[C@@H](Cc1c[nH]c2ccccc12)C(=O)O)(CCC(=O)N[C@H](Cc1c[nH]c2ccccc12)C(=O)O)NC(=O)[C@H]1C[C@@H](C(=O)NC(CCC(=O)N[C@@H](Cc2c[nH]c3ccccc23)C(=O)O)(CCC(=O)N[C@H](Cc2c[nH]c3ccccc23)C(=O)O)CCC(=O)N[C@H](Cc2c[nH]c3ccccc23)C(=O)O)C[C@@H](C(=O)NC(CCC(=O)N[C@@H](Cc2c[nH]c3ccccc23)C(=O)O)(CCC(=O)N[C@H](Cc2c[nH]c3ccccc23)C(=O)O)CCC(=O)N[C@H](Cc2c[nH]c3ccccc23)C(=O)O)C1)N[C@@H](Cc1c[nH]c2ccccc12)C(=O)O	Active	4.5		> 250		2	Dose-dependent effect	Active		> 55
CN[C@@H]1[C@H](O[C@@H]2OC[C@@H](O)[C@H](O)[C@H]2O)[C@@H](O)[C@H](O[C@H]2c3cc(C)c(C(=O)N[C@H](C)C(=O)O)c(O)c3-c3c(cc4c(c3O)C(=O)c3cc(OC)cc(O)c3C4=O)[C@@H]2O)O[C@@H]1C [PRADIMICIN A]				> 100						
O=C(O)CCC(CCC(=O)O)(CCC(=O)O)NC(=O)C[C@H]1C[C@@H](CC(=O)NC(CCC(=O)O)(CCC(=O)O)CCC(=O)O)C[C@@H](CC(=O)NC(CCC(=O)O)(CCC(=O)O)CCC(=O)O)C1		> 250	> 250	> 250						
